Measured values from patent publication US6946475B1, “Anticancer calcium channel blockers” (University of Virginia Patent Foundation, priority 1999, dated 2005).
pIC50: −log10 of the molar value.

How the values were obtained:
PC3 cells = experiment: Survival of SCID mice inoculated with PC3 cells; assay type: in vivo
Procedure: Animal Studies: All protocols were approved by the Animal Care Committee of the University of Virginia. SCID mice were housed in a barrier isolation facility of the University of Virginia Department of Comparative Medicine and all personnel observed sterile techniques when entering the facility and handling animals. TH-1177 was dissolved in ethanol and diluted 10-fold in sterile phosphate buffered saline (PBS) immediately prior to each day's injection. Injection volumes of 0.5 ml per animal were used. Vehicle consisted of PBS diluted ethanol. PC3 cells for injection were prepared by washing in sterile PBS three times prior to suspension to 2×10^6 per ml. Each animal received a daily IP injection of vehicle or drug beginning on day 1.
Statistical methods: In vivo survival data were analyzed with Prism 2.01 (GraphPad Software, San Diego, Calif.). The results of the Kaplan-Meier analysis are presented as one-tailed probabilities because there was no reasonable expectation that drug treatment would cause the mice to succumb more rapidly to the implanted cancer than would control animals.
TH-1177 slowed prostate cancer progression in vivo. […] One day later, daily IP injections of TH-1177 or vehicle alone were begun. TH1177 was administered at doses or either 3 mg/kg or 10 mg/kg. […]

[1] = system: MDA-468 (breast cancer cell); experiment: Measurement of cellular proliferation, MDA-468 cells; assay type: cell-based; settings: MDA-468, 48 hours
Procedure: (§1) Measurement of cellular proliferation: LNCaP cells at 2.5×10^4/well or PC3 cells at 5×10^4/well, both in a final volume of 100 μl, were plated in triplicate in standard flat bottom 96 well tissue culture plates in the presence of drug or vehicle (DMSO). Unless otherwise indicated, cells were grown for 48 hours at 37° C. in a CO2 incubator. Relative cell growth was determined with the CellTiter 96 aqueous cell proliferation assay (Promega, Madison, Wis.) as described by the manufacturer using an automated plate reader. Results were calculated in a blinded fashion and are means of triplicate determinations.
(§2) For the 48 hour proliferation, cells were cultured with calcium channel antagonists or without calcium channel antagonists. The IC50 values of the calcium channel antagonists were determined.
(§3) Using the measurement cell proliferation assay described hereinabove, the cell lines Jurkat, LNCap (prostate cancer cell), PC-31 (prostate cancer cell), DU145 (prostate cancer cell), MDA-468 (breast cancer cell), MDA-36 (Breast cancer cell), MCF-7 (breast cancer cell), MIA PaCa-2 (pancreatic cancer cell), Hep G2 (liver cancer cell), A549 (non-small cell lung cancer cells), NCI H460 (non-small cell lung cancer cells), HT-29 (colon cancer cell), HCT-116 (colon cancer cell) and SK OV-3 (ovarian cancer cell) were cultured in the presence of TH-1177, TH-1205, TH-1201, TH-2109, TH-2029, TH-2043, TN-2085 and TH-2279.

[2] = system: HT-29 (colon cancer cell); experiment: Measurement of cellular proliferation, HT-29 cells; assay type: cell-based; settings: HT-29, 48 hours
Procedure: as §1, §2, §3

[3] = system: Hep G2 (liver cancer cell); experiment: Measurement of cellular proliferation, Hep G2 cells; assay type: cell-based; settings: Hep G2, 48 hours
Procedure: as §1, §2, §3

[4] = target: T1, α1G subunit of a calcium channel (Homo sapiens, UniProt O43497); experiment: Whole cell current recording, Xenopus oocytes transfected with α1G subunit; assay type: cell-based
T1 construct: expressed in transfected cells
Procedure: The procedure of Example 9 was repeated except the cells were transfected with 2 μg of α1G subunit prepared in accordance with the procedure described in Cribbs, et al., FEBS Letters, 66, 54-58 (2000). Here the cells were depolarized using the depolarizing medium of Example 9. When the current reached the maximum level, then 10 μm pH 1177 was added to the medium and the change in current was observed. The current was measured at about zero pA. When the current remained constant, the TH-1177 was washed out, in accordance with the procedure in Example 9 and the change in the current value was again recorded.

[5] = system: MDA-361 cells (breast cancer cell); experiment: Measurement of cellular proliferation, MDA-361 cells; assay type: cell-based; settings: MDA-361, 48 hours; read-out: PROLIFERATION IC50 MDA-361
Procedure: as §1, §2, §3

[6] = system: HCT-116 (colon cancer cell); experiment: Measurement of cellular proliferation, HCT-116 cells; assay type: cell-based; settings: HCT 116, 48 hours
Procedure: as §1, §2, §3

[7] = system: A549 (non-small cell lung cancer cells); experiment: Measurement of cellular proliferation, A549 cells; assay type: cell-based; settings: A549, 48 hours
Procedure: as §1, §2, §3

[8] = Toxicity in SCID mice without tumors; assay type: in vivo; settings: 180 mg/kd/d
Procedure: Four SCID mice without tumors were given TH-1177 at a dose of 180 mg/kd/d.

[9] = system: MIA PaCa-2 (pancreatic cancer cell); experiment: Measurement of cellular proliferation, MIA PaCa-2 cells; assay type: cell-based; settings: MIA PaCa-2, 48 hours
Procedure: as §1, §2, §3

T1 sequence (O43497 1-2171 isoform O43497-5): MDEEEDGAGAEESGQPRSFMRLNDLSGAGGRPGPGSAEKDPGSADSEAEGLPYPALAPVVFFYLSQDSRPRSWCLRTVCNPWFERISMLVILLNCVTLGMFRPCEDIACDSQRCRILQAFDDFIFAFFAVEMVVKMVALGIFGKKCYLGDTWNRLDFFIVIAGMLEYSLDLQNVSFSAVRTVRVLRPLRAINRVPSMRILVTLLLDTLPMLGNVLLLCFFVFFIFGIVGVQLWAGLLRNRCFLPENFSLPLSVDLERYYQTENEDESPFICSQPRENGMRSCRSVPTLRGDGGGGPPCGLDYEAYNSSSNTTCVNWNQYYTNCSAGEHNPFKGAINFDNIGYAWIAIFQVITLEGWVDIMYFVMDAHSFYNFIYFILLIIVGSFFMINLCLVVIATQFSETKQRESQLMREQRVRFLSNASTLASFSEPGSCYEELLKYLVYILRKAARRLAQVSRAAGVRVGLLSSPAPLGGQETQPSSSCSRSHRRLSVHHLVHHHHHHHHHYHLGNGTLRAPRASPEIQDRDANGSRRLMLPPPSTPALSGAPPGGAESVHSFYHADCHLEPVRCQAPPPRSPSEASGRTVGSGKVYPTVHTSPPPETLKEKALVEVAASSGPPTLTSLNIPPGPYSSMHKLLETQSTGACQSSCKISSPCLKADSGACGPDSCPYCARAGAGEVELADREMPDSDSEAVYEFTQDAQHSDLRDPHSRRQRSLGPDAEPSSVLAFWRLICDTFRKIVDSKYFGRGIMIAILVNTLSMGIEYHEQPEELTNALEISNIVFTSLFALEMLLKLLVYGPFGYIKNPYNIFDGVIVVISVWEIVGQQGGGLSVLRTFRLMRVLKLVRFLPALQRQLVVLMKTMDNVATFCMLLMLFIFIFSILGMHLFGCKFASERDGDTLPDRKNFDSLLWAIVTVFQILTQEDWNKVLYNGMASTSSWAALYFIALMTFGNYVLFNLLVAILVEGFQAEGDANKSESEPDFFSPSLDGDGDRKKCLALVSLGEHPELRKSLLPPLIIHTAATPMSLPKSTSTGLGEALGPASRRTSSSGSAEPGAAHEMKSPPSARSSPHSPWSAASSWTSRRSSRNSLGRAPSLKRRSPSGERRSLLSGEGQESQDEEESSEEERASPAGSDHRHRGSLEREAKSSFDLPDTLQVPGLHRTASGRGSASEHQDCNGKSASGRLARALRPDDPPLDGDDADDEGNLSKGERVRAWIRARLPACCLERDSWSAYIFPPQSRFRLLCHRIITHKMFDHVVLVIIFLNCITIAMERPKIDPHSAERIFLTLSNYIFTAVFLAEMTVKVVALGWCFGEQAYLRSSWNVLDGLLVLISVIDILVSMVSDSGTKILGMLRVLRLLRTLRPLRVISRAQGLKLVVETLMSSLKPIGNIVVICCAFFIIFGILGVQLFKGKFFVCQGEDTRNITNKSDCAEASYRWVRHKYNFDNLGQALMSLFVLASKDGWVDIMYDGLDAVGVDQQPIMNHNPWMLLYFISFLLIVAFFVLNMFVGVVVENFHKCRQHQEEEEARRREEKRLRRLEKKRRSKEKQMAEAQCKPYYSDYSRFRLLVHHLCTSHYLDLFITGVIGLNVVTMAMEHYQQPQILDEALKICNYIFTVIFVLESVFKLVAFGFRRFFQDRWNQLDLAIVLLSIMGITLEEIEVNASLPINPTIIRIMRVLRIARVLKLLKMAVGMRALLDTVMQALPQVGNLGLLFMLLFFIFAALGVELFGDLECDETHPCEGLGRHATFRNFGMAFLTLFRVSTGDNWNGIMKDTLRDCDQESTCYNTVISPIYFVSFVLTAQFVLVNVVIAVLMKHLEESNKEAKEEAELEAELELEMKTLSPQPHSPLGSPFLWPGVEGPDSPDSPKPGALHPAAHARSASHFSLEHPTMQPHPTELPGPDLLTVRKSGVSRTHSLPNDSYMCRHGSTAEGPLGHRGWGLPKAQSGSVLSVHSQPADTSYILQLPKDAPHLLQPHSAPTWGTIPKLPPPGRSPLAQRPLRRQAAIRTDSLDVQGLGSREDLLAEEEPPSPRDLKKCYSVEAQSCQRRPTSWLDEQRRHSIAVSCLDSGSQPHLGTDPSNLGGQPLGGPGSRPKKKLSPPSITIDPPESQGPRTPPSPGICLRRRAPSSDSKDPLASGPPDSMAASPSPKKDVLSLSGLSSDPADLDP

- pIC50 [1]: 4.89
- pIC50 [2]: ~4.00
- pIC50 [3]: 4.49
- Current in depolarized α1G-transfected cells ([4]; 10 μm added at maximum current): about zero
- Ability of calcium to cross the cell membrane ([4]; α1G-transfected Xenopus oocytes, restored on washout): completely inhibits
- pIC50 [5]: 4.59
- pIC50 [6]: 4.43
- pIC50 [7]: 4.15
- pIC50 [9]: 4.77
SMILES: COc1ccc(CCN2CCC[C@H]2COC(c2ccccc2)c2ccc(Cl)cc2)cc1 (stereo partly shown) [TH-1177]
- Life span increase (PC3 cells; 3 mg/kg/d daily IP, p=0.047): 34%
- Life span increase (PC3 cells; 10 mg/kg/d daily IP, p=0.0044): 38%
- Gross findings at necropsy [8]: no gross abnormalities
- Histological examination of kidney, adrenal gland, heart and liver [8]: within normal limits
